# Source: publication PMC3292407 (The Journal of Neuroscience, 2012)
# What was measured:
# [1] = system: GABAARs; format: cell-based, rat; settings: flumazenil (10 and 100 μM shown), cultured neurons
# [2] = system: rats; test: Loss of Righting Reflex
# [3] = system: GABAARs; format: cell-based, rat
SMILES,Effect on DHM (1 μM) enhancement of Itonic and mIPSCs [1],"Effect on EtOH-induced LORR ([2]; flumazenil 10 mg/kg co-injected with EtOH 3 g/kg (E3+F10), vs E3-group)",LORR duration ([2]; flumazenil 10 mg/kg with EtOH 3 g/kg and DHM 3 mg/kg (E3+D3+F10)) [min],LORR duration ([2]; flumazenil 10 mg/kg with EtOH 3 g/kg and DHM 10 mg/kg (E3+D10+F10)) [min],LORR duration ([2]; flumazenil 20 mg/kg i.p. alone (F20)) [min],LORR duration ([2]; flumazenil 30 mg/kg with EtOH 3 g/kg and DHM 3 mg/kg (E3+D3+F30)) [min],LORR duration ([2]; flumazenil 200 mg/kg i.p. alone (F200)) [min],"LORR induction ([2]; flumazenil 20, 200 mg/kg alone)",Effect on EtOH-induced potentiation of Itonic and mIPSCs [3]
"CCOC(=O)c1ncn2c1CN(C)C(=O)c1cc(F)ccc1-2 [flumazenil, reference compound]",inhibited the DHM enhancement on GABAAR-currents in a concentration-dependent manner,did not alter LORR,56.1 ± 4.6,29.3 ± 4.8,0,58.2 ± 3.9,0,did not induce LORR,
"O=c1c(O)c(-c2ccc(O)c(O)c2)oc2cc(O)cc(O)c12 [quercetin, reference compound]",,,,,,,,,did not change EtOH-induced potentiation
